Measurements as given in US20250171438A1 (Agios Pharmaceuticals, Inc., priority 2022, published 2025).

molecular target: T1, human PAH with the R408W mutation (Homo sapiens, UniProt P00439, R408W); assay: Cell Based Phenylalanine Flux Assay; conditions: A375 cells expressing human R408W PAH; 24 hrs compound incubation; 13C-Tyrosine by LC-MS; average where tested multiple times; read-out: AC50
T1 construct: expressed in transfected cells
T1 sequence (P00439 1-452 R408W): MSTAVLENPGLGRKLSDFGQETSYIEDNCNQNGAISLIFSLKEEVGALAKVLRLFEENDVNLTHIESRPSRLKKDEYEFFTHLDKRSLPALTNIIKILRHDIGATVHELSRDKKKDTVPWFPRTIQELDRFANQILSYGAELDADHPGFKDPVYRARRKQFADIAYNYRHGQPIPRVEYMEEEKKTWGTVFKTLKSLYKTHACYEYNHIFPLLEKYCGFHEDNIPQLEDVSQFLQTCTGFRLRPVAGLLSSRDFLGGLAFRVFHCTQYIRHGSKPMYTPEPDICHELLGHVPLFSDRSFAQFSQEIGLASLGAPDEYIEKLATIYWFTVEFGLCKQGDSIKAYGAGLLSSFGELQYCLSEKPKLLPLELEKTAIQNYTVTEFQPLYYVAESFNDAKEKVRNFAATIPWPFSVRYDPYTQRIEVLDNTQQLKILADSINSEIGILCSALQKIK

SMILES	AC50
O=C(c1oc(N2CCOCC2)nc1C(F)(F)F)N1CCc2[nH]cnc2[C@H]1c1nc2c(F)cccc2s1 [Example 1597, (S)-(4-(4-fluorobenzo[d]thiazol-2-yl)-6,7-dihydro-1H-imidazo[4,5-c]pyridin-5(4H)-yl)(2-morpholino-4-(trifluoromethyl)oxazol-5-yl)methanone]	< 500 nM
O=C(c1oc(N2CCOCC2)nc1C(F)(F)F)N1CCc2[nH]cnc2[C@@H]1c1nc2c(F)cccc2s1 [Example 1598, (R)-(4-(4-fluorobenzo[d]thiazol-2-yl)-6,7-dihydro-1H-imidazo[4,5-c]pyridin-5(4H)-yl)(2-morpholino-4-(trifluoromethyl)oxazol-5-yl)methanone]	< 500 nM
CN(C)CCc1ccc2c(C(=O)N3CCc4[nH]cnc4[C@H]3c3nc4c(F)cccc4s3)cnn2c1 [Example 1599, (S)-(6-(2-(dimethylamino)ethyl)pyrazolo[1,5-a]pyridin-3-yl)(4-(4-fluorobenzo[d]thiazol-2-yl)-6,7-dihydro-1H-imidazo[4,5-c]pyridin-5(4H)-yl)methanone]	500 to 1000 nM
CN(C)CCc1ccc2c(C(=O)N3CCc4[nH]cnc4[C@@H]3c3nc4c(F)cccc4s3)cnn2c1 [Example 1600, (R)-(6-(2-(dimethylamino)ethyl)pyrazolo[1,5-a]pyridin-3-yl)(4-(4-fluorobenzo[d]thiazol-2-yl)-6,7-dihydro-1H-imidazo[4,5-c]pyridin-5(4H)-yl)methanone]	1000 to 5000 nM
O=C(c1nnc(-c2ccccn2)o1)N1CCc2[nH]cnc2[C@@H]1c1nc2c(F)cccc2s1 [Example 1601, (R)-(4-(4-fluorobenzo[d]thiazol-2-yl)-6,7-dihydro-1H-imidazo[4,5-c]pyridin-5(4H)-yl)(5-(pyridin-2-yl)-1,3,4-oxadiazol-2-yl)methanone]	500 to 1000 nM
O=C(c1nnc(-c2ccccn2)o1)N1CCc2[nH]cnc2[C@H]1c1nc2c(F)cccc2s1 [Example 1602, (S)-(4-(4-fluorobenzo[d]thiazol-2-yl)-6,7-dihydro-1H-imidazo[4,5-c]pyridin-5(4H)-yl)(5-(pyridin-2-yl)-1,3,4-oxadiazol-2-yl)methanone]	< 500 nM
Cn1nccc1C(=O)N1CCc2[nH]cnc2[C@H]1c1nc2c(F)cccc2s1 [Example 1603]	1000 to 5000 nM

Results, then the compound that gave them:

AC50	SMILES
> 5000 nM	Cn1nccc1C(=O)N1CCc2[nH]cnc2[C@@H]1c1nc2c(F)cccc2s1 [Example 1604, (R)-(4-(4-fluorobenzo[d]thiazol-2-yl)-6,7-dihydro-1H-imidazo[4,5-c]pyridin-5(4H)-yl)(1-methyl-1H-pyrazol-5-yl)methanone]
500 to 1000 nM	O=C(c1ccnn1-c1ccccc1)N1CCc2[nH]cnc2[C@H]1c1nc2c(F)cccc2s1 [Example 1605]
1000 to 5000 nM	O=C(c1ccnn1-c1ccccc1)N1CCc2[nH]cnc2[C@@H]1c1nc2c(F)cccc2s1 [Example 1606, (R)-(4-(4-fluorobenzo[d]thiazol-2-yl)-6,7-dihydro-1H-imidazo[4,5-c]pyridin-5(4H)-yl)(1-phenyl-1H-pyrazol-5-yl)methanone]
1000 to 5000 nM	C[C@H]1CN(C(=O)c2ocnc2C2CC2)[C@@H](c2nc3c(F)cccc3s2)c2nc[nH]c21 [Example 1607, (4-cyclopropyloxazol-5-yl)((4R,7S)-4-(4-fluorobenzo[d]thiazol-2-yl)-7-methyl-6,7-dihydro-1H-imidazo[4,5-c]pyridin-5(4H)-yl)methanone]
500 to 1000 nM	C[C@H]1CN(C(=O)c2ocnc2C2CC2)[C@H](c2nc3c(F)cccc3s2)c2nc[nH]c21 [Example 1608, (4-cyclopropyloxazol-5-yl)((4S,7S)-4-(4-fluorobenzo[d]thiazol-2-yl)-7-methyl-6,7-dihydro-1H-imidazo[4,5-c]pyridin-5(4H)-yl)methanone]
< 500 nM	CN(C)c1nnc(C(=O)N2CCc3[nH]cnc3[C@H]2c2nc3ccccc3s2)o1 [Example 1609]
1000 to 5000 nM	CN(C)c1nnc(C(=O)N2CCc3[nH]cnc3[C@@H]2c2nc3ccccc3s2)o1 [Example 1610, (R)-(4-(benzo[d]thiazol-2-yl)-6,7-dihydro-1H-imidazo[4,5-c]pyridin-5(4H)-yl)(5-(dimethylamino)-1,3,4-oxadiazol-2-yl)methanone]
